Where “and” joins values, the source holds several entries; their conditions need not be identical. Equal entries are not always repeated.
Tested on: PHA-producing microbial cells
Assay: flask cultures: effect of cell debris solutions and SDS on cell growth and PHA formation
Assay type: cell-based
Conditions: for Cell mass: 12 g/L glucose
Experimental: Starting with cell mass of high PHA content (72% w/w), production of 1 kg of PHA, in a purity of 96.4 w/w, generates about 0.45 kg of cell debris as shown in the scheme reported above. Disposal of this large amount of waste in aqueous solution is a task of high cost, but could be avoided with additional benefit if the cell debris could be reused in PHA fermentation. In order to reveal the effect of cell debris on cell growth and PHA formation, microbial cultures were conducted in 500 mL flasks in parallel. The flask cultures were set up with the same glucose concentrations (10-20 g/L), the same volume of mineral solution (160 mL) as shown in Table 1 reported hereinbelow, and the same inoculum and size. After predetermined amount of cell debris solutions were added, the total volume of flask cultures was raised to 200 mL by adding pre-sterilized distilled and deionized water. The flasks were shaken at 200 rpm and 30 ° C. in a rotary incubator for 24 or 48 hours. The cell mass concentration and PHA content were determined as described in the literature (see Jian Yu and Lilian X. L. Chen (2006), “Cost-effective recovery and purification of polyhydroxyalkanoates by selective dissolution of cell mass”, Biotechnology Progress, 22:547-553). […]
Surfactants such as SDS are optionally used in PHA recovery to disrupt cells and remove lipids and pigments from polyesters. They are soluble and left in the cell debris solutions, which may cause adverse effect on cell growth when the cell debris solution is reused in PHA fermentation. An acid-base cell debris solution containing 48.5 g/L of soluble solids and 5 g/L of SDS was used in this case. In the same flask cultures above (12 g/L of glucose), 8 mL of ABCDS was added to give 1.94 g/L of cell debris and 0.2 g/L of SDS. Additional SDS was also added to increase SDS concentration to 0.4, 0.6 and 0.8 g/L. Table 4 gives the results of cell growth and PHA formation at different surfactant levels. […] The benefit of cell debris at low SDS concentration (0.2-0.4 g/L) leads to 200-300% of increase in PHA concentration in comparison with the control.

CCCCCCCCCCCCOS(=O)(=O)[O-].[Na+] [SDS, sodium dodecyl sulfate]
PHA formation vs control without cell debris and surfactant (SDS 0.2-0.6 g/L with 1.94 g/L cell debris): enhanced
Cell mass (SDS 0.2 g/L with 1.94 g/L cell debris (ABCDS), 24 hours): 3.69 g/L
Cell mass (SDS 0.2 g/L with 1.94 g/L cell debris (ABCDS), 48 hours): 4.99 g/L
Cell mass (SDS 0.4 g/L with 1.94 g/L cell debris (ABCDS), 24 hours, sulfate): 3.22 g/L and 3.33 g/L
Cell mass (SDS 0.4 g/L with 1.94 g/L cell debris (ABCDS), 48 hours, sulfate): 4.46 g/L and 4.62 g/L
Cell mass (SDS 0.6 g/L with 1.94 g/L cell debris (ABCDS), 24 hours): 2.70 g/L
Cell mass (SDS 0.6 g/L with 1.94 g/L cell debris (ABCDS), 48 hours): 3.51 g/L
PHA formation vs control without cell debris and surfactant (SDS 0.8 g/L with 1.94 g/L cell debris): damaged to a great extent
Cell mass (SDS 0.8 g/L with 1.94 g/L cell debris (ABCDS), 24 hours): 2.59 g/L
Cell mass (SDS 0.8 g/L with 1.94 g/L cell debris (ABCDS), 48 hours): 3.54 g/L
